Experimental data reported in PMC8421423, “Cellular model system to dissect the isoform-selectivity of Akt inhibitors” (Nature Communications, 2021).
“And” between values parts separate entries of the source, which are not always exact repeats. Identical values can stand only once. Like-named read-outs stand apart in the source and are kept apart here.

What was measured:
[1] = CellTiter-Glo cell viability assay; type: cell-based, murine; details: mouse, parental Ba/F3 cells, CTG, parental, single replicates
[2] = tested on: parental Ba/F3 cells; assay: CellTiter-Glo cell viability assay; type: cell-based, murine; details: for cell viability: CTG, parental
[3] = tested on: pAkt2; assay: Western blot analysis, PANC1 cells; type: cell-based, human; details: PANC1, 24-h treatment
Description: Cells were seeded into six-well tissue culture plates (Sarstedt) (BaF3 myr-Akt1/2/3: 10^6 cells/well, PANC1: 250.000 cells/well). […] Cell lysis was initiated by addition of 100 μL RIPA buffer (Cell Signaling Technology) per well supplemented with phosphatase and protease inhibitor cocktails (Sigma) followed by incubation on ice for 20 min. Cells were then harvested by scraping (PANC1) or centrifugation (BaF3). Whole cell lysates were cleared by centrifugation at 14,000×g/4 °C for 10 min and transferred into fresh, pre-cooled microcentrifuge tubes. Protein concentrations were determined using the Pierce BCA protein assay (Thermo) as per manufacturer’s instructions. Equal amounts of protein were separated by SDS-PAGE and transferred to Immobilon-FL PVDF membranes (Merck Millipore) using Pierce™ 1-step transfer buffer (Thermo) and the Pierce™ Power Blotter (Thermo). Membranes were washed for 5 min with ddH2O, blocked with Intercept®Blocking Buffer TBS (Li-Cor) for 1 h at room temperature, and then incubated with primary antibodies diluted in Intercept®Blocking Buffer TBS overnight at 4 °C with gentle agitation. On the next day, the membranes were washed three times with TBS-T (50 mM Tris, 150 mM NaCl, 0.05 % Tween 20, pH 7.4) for 5 min before being incubated with secondary antibodies diluted in Intercept®Blocking Buffer TBS for 1 h at room temperature with gentle agitation. Finally, the membranes were washed three times for 5 min with TBS-T and then scanned using an Odyssey®CLx imaging system (Li-Cor).

[4] = molecular target: T1, Akt1 (Homo sapiens, UniProt P31749); assay: Cellular thermal shift assay (CETSA) in PANC1 cells; type: cell-based; parameters: purchased ProQinase #1379-0000-2
T1 sequence (P31749 whole entry): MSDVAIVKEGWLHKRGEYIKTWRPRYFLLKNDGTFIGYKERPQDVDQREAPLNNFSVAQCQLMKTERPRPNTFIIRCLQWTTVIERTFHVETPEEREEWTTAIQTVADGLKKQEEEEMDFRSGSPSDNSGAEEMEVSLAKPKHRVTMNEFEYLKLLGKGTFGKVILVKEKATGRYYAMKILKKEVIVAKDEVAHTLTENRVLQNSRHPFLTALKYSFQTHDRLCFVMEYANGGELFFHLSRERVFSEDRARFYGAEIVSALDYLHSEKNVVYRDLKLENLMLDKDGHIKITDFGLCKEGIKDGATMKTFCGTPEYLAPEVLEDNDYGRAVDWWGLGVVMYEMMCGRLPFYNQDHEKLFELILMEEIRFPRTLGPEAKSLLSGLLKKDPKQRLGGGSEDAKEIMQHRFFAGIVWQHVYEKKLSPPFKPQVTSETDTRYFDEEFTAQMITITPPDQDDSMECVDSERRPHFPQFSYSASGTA

[5] = molecular target: T2, Akt3 (Homo sapiens, UniProt Q9Y243); assay: as above; type: cell-based; parameters: purchased ProQinase #1578-0000-1
T2 sequence (Q9Y243 whole entry): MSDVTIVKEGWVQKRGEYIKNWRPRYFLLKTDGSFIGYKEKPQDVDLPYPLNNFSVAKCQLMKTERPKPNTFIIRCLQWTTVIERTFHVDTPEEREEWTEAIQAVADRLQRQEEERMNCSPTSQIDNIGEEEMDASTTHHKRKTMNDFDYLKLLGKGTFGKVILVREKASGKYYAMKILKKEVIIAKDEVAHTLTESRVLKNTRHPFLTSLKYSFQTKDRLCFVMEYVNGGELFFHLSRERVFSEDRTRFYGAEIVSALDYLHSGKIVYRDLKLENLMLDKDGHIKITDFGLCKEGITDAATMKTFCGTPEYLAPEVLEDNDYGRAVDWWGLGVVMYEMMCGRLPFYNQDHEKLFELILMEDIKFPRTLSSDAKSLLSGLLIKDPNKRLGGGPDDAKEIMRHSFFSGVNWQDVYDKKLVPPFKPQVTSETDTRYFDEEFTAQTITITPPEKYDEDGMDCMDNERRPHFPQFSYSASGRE
Description: (§1) Cells were seeded into 100 mm tissue culture plates (Sarstedt) (PANC1: 10^6 cells). After 24 h incubation, cells were treated with 1 µM of inhibitors or DMSO and were incubated for 4.5 h. Cells were washed twice with ice-cold PBS and then suspended in 1 mL PBS. Cells were collected and separated into equal volumes (100 µL). The aliquots were treated individually with different temperatures for 3 min, followed by a 3 min incubation at room temperature. Cell lysis was initiated by adding 100 µL RIPA buffer and 2 freeze-thaw cycles in liquid nitrogen. The lysates were centrifuged at 21,130×g for 20 min at room temperature. The supernatants were transferred into fresh, pre-cooled microcentrifuge tubes, and analyzed by western blot analysis as described above.

[6] = tested on: Ba/F3^myr-Akt1 cells; assay: CellTiter-Glo cell viability assay; details: for cell viability: CTG
[7] = tested on: Ba/F3^myr-Akt2 cells; assay: CellTiter-Glo cell viability assay; details: for cell viability: CTG
[8] = tested on: Ba/F3^myr-Akt3 cells; assay: CellTiter-Glo cell viability assay; details: for cell viability: CTG
[9] = molecular target: T3, Akt2 (Homo sapiens, UniProt P31751); assay: Cellular thermal shift assay (CETSA) in PANC1 cells; type: cell-based; parameters: purchased Thermo Fisher Scientific #PV3184
T3 sequence (P31751 whole entry): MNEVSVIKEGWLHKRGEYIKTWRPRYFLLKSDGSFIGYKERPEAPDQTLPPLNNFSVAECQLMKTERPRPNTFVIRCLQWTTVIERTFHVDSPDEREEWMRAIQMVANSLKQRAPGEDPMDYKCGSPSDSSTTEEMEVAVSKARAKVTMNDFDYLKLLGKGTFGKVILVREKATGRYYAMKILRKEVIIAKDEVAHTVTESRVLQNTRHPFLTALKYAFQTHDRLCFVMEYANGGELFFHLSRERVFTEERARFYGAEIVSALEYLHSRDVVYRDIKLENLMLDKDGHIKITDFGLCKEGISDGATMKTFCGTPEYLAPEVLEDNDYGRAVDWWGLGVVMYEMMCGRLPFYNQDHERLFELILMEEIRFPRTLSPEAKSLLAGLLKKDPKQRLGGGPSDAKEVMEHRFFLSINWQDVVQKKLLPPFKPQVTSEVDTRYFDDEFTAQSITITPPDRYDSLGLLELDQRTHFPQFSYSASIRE
Description: as §1

[10] = molecular target: T1, Akt1; assay: STK HTRF KinEASE activity-based assay (IC50)
Description: The biochemical half maximal inhibitory concentrations (IC50) were determined with the STK HTRF KinEASE assay (Cisbio) according to the manufactor’s instructions. Briefly: 5 µL Kinase solution and 2.5 µL inhibitor solution (8% DMSO in HTRF buffer) were incubated for 1 h before the reaction was started by addition of 2.5 µL starting solution containing ATP and substrate peptide. […] After reaction completion (Akt1: 60 min, Akt2: 20 min, Akt3: 15 min), 10 µL of stop solution were added. […] The quotient of both intensities were recorded at eight different inhibitor concentrations and data fit to a Hill 4-parameter equation with Quattro software suite (Quattro Research GmbH, Martinsried, Germany). Each reaction was performed in duplicates and at least three independent determinations of each IC50 were made.

[11] = molecular target: T3, Akt2; assay: STK HTRF KinEASE activity-based assay (IC50)
[12] = molecular target: T2, Akt3; assay: STK HTRF KinEASE activity-based assay (IC50)
[13] = CETSA PANC1, 0.3 µM, temperature 39.9
[14] = CETSA PANC1, 0.3 µM, temperature 43.5
[15] = CETSA PANC1, 0.3 µM, temperature 48.4
[16] = CETSA PANC1, 0.3 µM, temperature 53.8
[17] = CETSA PANC1, 0.3 µM, temperature 58.1
[18] = CETSA PANC1, 0.3 µM, temperature 61.4
[19] = CETSA PANC1, 0.3 µM, temperature 65.6
[20] = CETSA PANC1, 0.3 µM, temperature 70.9
[21] = CETSA PANC1, 0.3 µM, temperature 76
[22] = CETSA PANC1, 0.3 µM, temperature 79.9
[23] = CETSA PANC1, 1 µM, temperature 39.9
[24] = CETSA PANC1, 1 µM, temperature 43.5
[25] = CETSA PANC1, 1 µM, temperature 48.4
[26] = CETSA PANC1, 1 µM, temperature 53.8
[27] = CETSA PANC1, 1 µM, temperature 58.1
[28] = CETSA PANC1, 1 µM, temperature 61.4
[29] = CETSA PANC1, 1 µM, temperature 65.6
[30] = CETSA PANC1, 1 µM, temperature 70.9
[31] = CETSA PANC1, 1 µM, temperature 76
[32] = CETSA PANC1, 1 µM, temperature 79.9
[33] = cell viability assay Ba/F3 myr-Akt cells, log units

C=CC(=O)Nc1ccc2[nH]c(=O)n(C3CCN(Cc4ccc(-c5ncccc5-c5ccccc5)cc4)CC3)c2c1 [compound 1]
viability at 3 days, 0.0001 µM ([1]; 0.1 nM, read-out: cell viability): 100% | viability at 3 days, 5 µM ([1]; 5000 nM): 106% | cell viability ([2]; 0.1 nM, single replicates, 0.0001 µM): 107.4 % of control and 103.8 % of control | cell viability ([2]; 5000 nM, single replicates, 5 µM): 99.2 % of control and 101.9 % of control | EC50 ([2]; Mus musculus, BaF3, parental cells, mean of replicates, read-out: CTG BaF3, Mean): 6890 nM | EC50 ([2]; Mus musculus, BaF3, parental cells, single replicates, read-out: CTG BaF3, individual determinations): 7690 nM | EC50 ([2]; parental cells, single replicates, read-out: CTG BaF3, individual determinations): 6990 nM and 6000 nM | pAkt2 level (immunoblot) [3]: downregulation of pAkt1 and pAkt2 | tAkt1 % [4, 13]: 100.00% | tAkt1 % [4, 14]: 101.52% | tAkt1 % [4, 15]: 79.62% | tAkt1 % [4, 16]: 74.15% | tAkt1 % [4, 17]: 68.37% | tAkt1 % [4, 18]: 51.95% | tAkt1 % [4, 19]: 36.13% | tAkt1 % [4, 20]: 22.45% | tAkt1 % [4, 21]: 11.95% | tAkt1 % [4, 22]: 0.00% | tAkt1 % [4, 23]: 100.00% | tAkt1 % [4, 24]: 88.73% | tAkt1 % [4, 25]: 82.43% | tAkt1 % [4, 26]: 73.59% | tAkt1 % [4, 27]: 56.69% | tAkt1 % [4, 28]: 2.43% | tAkt1 % [4, 29]: 11.71% | tAkt1 % [4, 30]: 5.41% | tAkt1 % [4, 31]: 0.00% | tAkt1 % [4, 32]: 0.00% | thermal stabilization of Akt1 (CETSA, in words) ([4]; PANC1, 0.3 µM): preferred stabilization of Akt1 | thermal stabilization of Akt1 (CETSA, in words) ([4]; PANC1, 1 µM): losing this selectivity | tAkt3 % [5, 13]: 100.00% | tAkt3 % [5, 14]: 53.46% | tAkt3 % [5, 15]: 48.12% | tAkt3 % [5, 16]: 46.68% | tAkt3 % [5, 17]: 22.77% | tAkt3 % [5, 18]: 21.02% | tAkt3 % [5, 19]: 20.86% | tAkt3 % [5, 20]: 9.30% | tAkt3 % [5, 21]: 7.63% | tAkt3 % [5, 22]: 0.00% | tAkt3 % [5, 23]: 100.00% | tAkt3 % [5, 24]: 12.48% | tAkt3 % [5, 25]: 11.45% | tAkt3 % [5, 26]: 15.32% | tAkt3 % [5, 27]: 13.90% | tAkt3 % [5, 28]: 14.16% | tAkt3 % [5, 29]: 2.70% | tAkt3 % [5, 30]: 0.26% | tAkt3 % [5, 31]: 0.00% | tAkt3 % [5, 32]: 0.00% | cell viability ([6]; myr-Akt1, 0.1 nM, single replicates, 0.0001 µM): 91.2 % of control and 96.3 % of control | cell viability ([6]; myr-Akt1, 5000 nM, single replicates, 5 µM): 6.7 % of control and 13.9 % of control and 18.5 % of control | EC50 ([6]; Mus musculus, read-out: CTG BaF3myr-Akt1, Mean, mean of replicates): 1790 nM | viability at 0.0001 µM ([6]; Mus musculus, read-out: cell viability, CTG, myr-Akt1, 0.1 nM, single replicates): 85.5% | Log ratio EC50 [Akt] / EC50 [Akt], Akt1 / Akt2 [6, 33]: -0.40 | EC50 ([6]; read-out: CTG BaF3myr-Akt1, individual determinations, single replicates): 1190 nM and 1500 nM and 2670 nM | cell viability ([7]; myr-Akt2, 0.1 nM, single replicates, 0.0001 µM): 96.6 % of control and 111.8 % of control | cell viability ([7]; myr-Akt2, 5000 nM, single replicates, 5 µM): 74.8 % of control and 79.6 % of control | EC50 ([7]; Mus musculus, read-out: CTG BaF3myr-Akt2, Mean, mean of replicates): 4470 nM | viability at 0.0001 µM ([7]; Mus musculus, read-out: cell viability, CTG, myr-Akt2, 0.1 nM, single replicates): 105% | viability at 5 µM ([7]; Mus musculus, read-out: cell viability, CTG, myr-Akt2, 5000 nM, single replicates): 84.5% | EC50 ([7]; read-out: CTG BaF3myr-Akt2, individual determinations, single replicates): 6330 nM and 5560 nM and 1520 nM | cell viability ([8]; myr-Akt3, 0.1 nM, single replicates, 0.0001 µM): 105.8 % of control and 97.9 % of control | cell viability ([8]; myr-Akt3, 5000 nM, single replicates, 5 µM): 61.6 % of control and 92.9 % of control and 84.6 % of control | EC50 ([8]; Mus musculus, read-out: CTG BaF3myr-Akt3, Mean, mean of replicates): > 30000 nM | EC50 ([8]; Mus musculus, read-out: CTG BaF3myr-Akt3, individual determinations, single replicates): > 30000 nM | EC50 ([8]; Mus musculus, read-out: EC50 BaF3myr-Akt3, CTG): > 30000 nM | viability at 0.0001 µM ([8]; Mus musculus, read-out: cell viability, CTG, myr-Akt3, 0.1 nM, single replicates): 103% | Log ratio EC50 [Akt] / EC50 [Akt], Akt3 / Akt2 [8, 33]: -0.83 | EC50 ([8]; read-out: CTG BaF3myr-Akt3, individual determinations, single replicates): > 30000 nM | tAkt2 % [9, 13]: 100.00% | tAkt2 % [9, 14]: 64.53% | tAkt2 % [9, 15]: 56.84% | tAkt2 % [9, 16]: 46.79% | tAkt2 % [9, 17]: 50.34% | tAkt2 % [9, 18]: 34.71% | tAkt2 % [9, 19]: 11.57% | tAkt2 % [9, 20]: 0.00% | tAkt2 % [9, 21]: 3.97% | tAkt2 % [9, 22]: 0.00% | tAkt2 % [9, 23]: 100.00% | tAkt2 % [9, 24]: 102.86% | tAkt2 % [9, 25]: 75.10% | tAkt2 % [9, 26]: 33.02% | tAkt2 % [9, 27]: 70.90% | tAkt2 % [9, 28]: 3.44% | tAkt2 % [9, 29]: 7.92% | tAkt2 % [9, 30]: -2.39% | tAkt2 % [9, 31]: 37.12% | tAkt2 % [9, 32]: 0.00% | IC50 ([10]; HTRF IC50 Akt1, individual determinations, single replicates): 43.9 nM and 72.2 nM and 42.8 nM | IC50 ([10]; IC50 Akt1, HTRF, ATP at KM, 1 h preincubation): 53 ± 13 nM | Log ratio IC50 [Akt] / IC50 [Akt], Akt1 / Akt2 ([10]; biochemical activity based assay, log units): -1.05 | IC50 ([11]; HTRF IC50 Akt2, Mean, mean of replicates): 599 nM | IC50 ([11]; HTRF IC50 Akt2, individual determinations, single replicates): 658 nM and 512 nM and 626 nM | IC50 ([11]; IC50 Akt2, HTRF, ATP at KM, 1 h preincubation): 599 ± 63 nM | loss of activity for Akt2 compared to Akt1 ([11]; biochemical IC50): 10 fold | IC50 ([12]; HTRF IC50 Akt3, individual determinations, single replicates): 5630 nM and 8200 nM and 6050 nM | IC50 ([12]; IC50 Akt3, HTRF, ATP at KM, 1 h preincubation): 6630 ± 1130 nM | loss of activity for Akt3 compared to Akt1 ([12]; biochemical IC50): 100 fold
